Assay results: paper PMC3076313 (Bioorganic chemistry, 2010)
Positions count from the first letter of the chain named.

What was measured:
[1] = target: T1, semisynthetic p300 HAT (wt p300 HAT) (Homo sapiens, UniProt Q09472); conditions: 20 μM acetyl-CoA, 100 μM H4-15 peptide, 7 min pre-incubation, 30°C
T1 sequence (Q09472 1287-1663 limits assumed): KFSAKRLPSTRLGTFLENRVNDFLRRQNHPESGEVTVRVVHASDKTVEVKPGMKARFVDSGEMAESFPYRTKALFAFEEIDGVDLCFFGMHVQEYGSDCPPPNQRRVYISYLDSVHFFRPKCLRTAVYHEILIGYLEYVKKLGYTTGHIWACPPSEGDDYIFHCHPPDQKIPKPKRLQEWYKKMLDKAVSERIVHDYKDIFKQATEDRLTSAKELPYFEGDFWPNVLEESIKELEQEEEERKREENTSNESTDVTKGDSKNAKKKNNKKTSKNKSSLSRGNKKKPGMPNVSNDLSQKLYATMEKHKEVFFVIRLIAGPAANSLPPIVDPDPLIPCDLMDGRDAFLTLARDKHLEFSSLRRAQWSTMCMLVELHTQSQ

[2] = target: T2, D1625R/D1628R double mutant of p300 HAT (Homo sapiens, UniProt Q09472, D1625R/D1628R); assay: p300 HAT radioactive acetyltransferase inhibition assay, double mutant enzyme
T2 sequence (Q09472 1287-1663 D1625R/D1628R limits assumed): T1 sequence (Q09472 1287-1663 limits assumed) with D339R, D342R

p300 HAT = p300 HAT inhibitor; cited from earlier work

IC50 [1]: 0.06 µM
IC50 ([2]; D1625R, D1628R p300 HAT, 20 μM acetyl-CoA, 100 μM H4-15 peptide): 0.209 ± 0.015 µM
fold weakening of IC50 with D1625R/D1628R p300 HAT compared with wt p300 HAT ([2]; double mutant vs wt): 3.5 fold
Compound: CC(=O)N[C@@H](CCCCNC(=O)CSCCNC(=O)CCNC(=O)[C@H](O)C(C)(C)COP(=O)(O)OP(=O)(O)OC[C@H]1O[C@@H](n2cnc3c(N)ncnc32)[C@H](O)[C@@H]1OP(=O)(O)O)C(N)=O [Lys-CoA]
Ki (p300 HAT): 0.02 µM
